Assay results from ChEMBL document CHEMBL3585341, “-Heteroarylalkylcarbamates as inhibitors of fatty acid amide hydrolase (FAAH)” (Medchemcomm, 2014).
Activity calls are given as the source filed them. The calls are words filed in the database; no cut-off is given here.

How the values were obtained:
[1] = molecular target: T1, Fatty-acid amide hydrolase 1 (Rattus norvegicus, UniProt P97612); test: (§1) Inhibition of Sprague-Dawley rat brain microsomal FAAH using N-(2-hydroxyethyl)-4-pyren-1-ylbutanamide as substrate assessed as 4-pyren-1-ylbutanoic acid release preincubated for 10 mins with substrate followed by protein addition measured after 60 mins by reverse phase HPLC with fluorescence detection method
T1 sequence (P97612 whole entry): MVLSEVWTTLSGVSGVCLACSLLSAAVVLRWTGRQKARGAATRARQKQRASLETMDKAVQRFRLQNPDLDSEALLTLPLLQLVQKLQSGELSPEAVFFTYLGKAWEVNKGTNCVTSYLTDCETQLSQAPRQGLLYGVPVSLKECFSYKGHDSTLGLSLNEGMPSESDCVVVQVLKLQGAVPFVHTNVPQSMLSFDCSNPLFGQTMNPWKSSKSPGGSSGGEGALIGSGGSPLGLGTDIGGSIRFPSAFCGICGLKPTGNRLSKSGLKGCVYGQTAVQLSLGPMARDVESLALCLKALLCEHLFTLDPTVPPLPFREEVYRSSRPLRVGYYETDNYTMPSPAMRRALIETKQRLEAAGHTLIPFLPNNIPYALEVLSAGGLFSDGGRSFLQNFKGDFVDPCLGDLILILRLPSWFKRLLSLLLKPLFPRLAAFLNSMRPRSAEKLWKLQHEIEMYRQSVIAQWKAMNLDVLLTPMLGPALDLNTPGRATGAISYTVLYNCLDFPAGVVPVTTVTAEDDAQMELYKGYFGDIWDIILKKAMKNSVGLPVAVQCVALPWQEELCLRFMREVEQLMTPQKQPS

[2] = molecular target: T2, Monoglyceride lipase (Homo sapiens) (UniProt Q99685); test: Inhibition of human recombinant MAGL using […] 4-pyren-1-yl butanoate as substrate at 10 uM preincubated for 15 mins with substrate followed by protein addition measured after 45 mins by reverse phase HPLC with fluorescence detection method
T2 sequence (whole entry): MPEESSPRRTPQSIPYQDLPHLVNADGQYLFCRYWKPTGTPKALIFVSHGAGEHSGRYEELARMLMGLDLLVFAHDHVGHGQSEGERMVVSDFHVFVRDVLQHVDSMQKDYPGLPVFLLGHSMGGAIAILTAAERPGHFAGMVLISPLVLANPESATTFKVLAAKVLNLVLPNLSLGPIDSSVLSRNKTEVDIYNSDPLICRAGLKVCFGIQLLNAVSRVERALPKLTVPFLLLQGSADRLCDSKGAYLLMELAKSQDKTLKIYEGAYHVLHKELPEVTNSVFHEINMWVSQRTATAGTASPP

[3] = species on record: Sus scrofa; test: Inhibition of porcine platelet cPLA2alpha using co-vesicles consisting 1-stearoyl-2-arachidonoyl-sn-glycero-3-phosphocholine and 1,2-dioleoyl-sn-glycerol as substrate assessed as arachidonic acid release at 10 uM after 60 mins by reverse phase HPLC with UV-detection method
[4] = molecular target: T3, Fatty-acid amide hydrolase 1 (Rattus norvegicus) (UniProt P97612); test: as §1, with “release at 10 uM” for “release”
T3 sequence (whole entry): T1 sequence (P97612 whole entry)

[5] = Metabolic stability in rat liver S9 fractions assessed as remaining compound after 30 mins by reverse phase HPLC with UV-detection method in presence of NADPH; type: ADME, subcellular, Liver S9 fraction; conditions: read-out: Stability
[6] = Metabolic stability in porcine plasma assessed as remaining compound at […] after 30 mins by reverse phase HPLC with UV-detection method; type: ADME, cell-free, Sus scrofa; conditions: pig, read-out: Stability

SMILES	IC50 [1] [µM]	inhibition [3]	further results
Cc1ccc(-c2ccccc2)n1CCCCCCNC(=O)Oc1ccccc1	0.31	–	–
O=C(NCCCCCCCn1ccc2ccccc21)Oc1ccccc1	0.09	inactive	inhibition [2]: inactive
O=C(NCCCCCCn1cc(-c2ccccc2)c2ccccc21)Oc1ccccc1	4.9	–	–
O=C(NCCCCCCn1c(-c2ccccc2)cc2ccccc21)Oc1ccccc1	0.52	–	–
Cc1cc(-c2ccccc2)c(-c2ccccc2)n1CCNC(=O)Oc1ccccc1	–	–	inhibition [4]: inactive
Cc1cc(-c2ccccc2)c(-c2ccccc2)n1CCCCNC(=O)Oc1ccccc1	6.2	–	–
CC(=O)c1c(-c2ccccc2)c(-c2ccccc2)n(CCCCCCNC(=O)Oc2ccccc2)c1C	> 10	–	inhibition [4]: 33%
O=C(NCCCCCn1ccc2ccccc21)Oc1cccnc1	0.0036	inactive	remaining at 0.5 h [5]: 43%; remaining at 0.5 h [6]: 0%
O=C(NCCCCCCn1ncc2ccccc21)Oc1ccccc1	0.92	–	–
O=C(NCCCCn1ccc2ccccc21)Oc1ccccc1	0.96	inactive	inhibition [2]: inactive
Cc1cc(-c2ccccc2)c(-c2ccccc2)n1CCCCCCNC(=O)Oc1ccccc1	2.6	–	–
O=C(NCCCCCCCCn1ccc2ccccc21)Oc1ccccc1	0.24	inactive	inhibition [2]: inactive
COC(=O)c1c(-c2ccccc2)c(-c2ccccc2)n(CCCCCCNC(=O)Oc2ccccc2)c1C	> 10	–	inhibition [4]: 21%
O=C(NCCCCCCn1nnc2ccccc21)Oc1ccccc1	0.81	–	–
Cc1c(C#N)c(-c2ccccc2)c(-c2ccccc2)n1CCCCCCNC(=O)Oc1ccccc1	8.7	–	–
O=C(NCCCCCCn1ccc2ccccc21)Oc1ccccc1	0.25	inactive	inhibition [2]: inactive
O=C(NCCCCCCn1ccc2ccccc21)Oc1cccnc1	0.0052	inactive	remaining at 0.5 h [5]: 47%; remaining at 0.5 h [6]: 0%
O=C(NCCCCCn1ccc2ccccc21)Oc1ccccc1	0.094	inactive	inhibition [2]: inactive
Cc1nc(-c2ccccc2)c(-c2ccccc2)n1CCCCCCNC(=O)Oc1ccccc1	0.35	–	–
NC(=O)c1cccc(-c2cccc(OC(=O)NC3CCCCC3)c2)c1 [URB-597]	–	inactive	remaining at 0.5 h [5]: 13%; remaining at 0.5 h [6]: 76%
O=C(NCCCCCCn1c(-c2ccccc2)c(-c2ccccc2)c2ccccc21)Oc1ccccc1	4.7	–	–
Cc1c(-c2ccccc2)cc(-c2ccccc2)n1CCCCCCNC(=O)Oc1ccccc1	0.46	–	–
O=C(NCCCCCCn1cnc2ccccc21)Oc1ccccc1	0.29	–	–
